Patent US20240270762A1, “PENICILLIN-BINDING PROTEIN INHIBITORS” (priority 2021, published 2024)
In brackets after ≈: the same amount, converted by molar mass. Read-outs that look alike come from different tables or passages of the source.

Assays:
[1] = system: N. gonorrhoeae WHO X; test: Liquid broth MIC in Fastidious broth; conditions: Neisseria gonorrhoeae
[2] = system: B. thailandensis ATCC 700388; test: microbe, parasite or virus in culture; assay type: cell-based; conditions: Burkholderia thailandensis, ATCC700388, read-out: Minimum inhibitory concentration (MIC), B. thailandensis ATCC 700388
[3] = system: N. gonorrhoeae WHO Q; test: Liquid broth MIC in Fastidious broth; conditions: Neisseria gonorrhoeae
[4] = molecular target: T1, PBP1a from Acinetobacter baumannii (ATCC 19606) (Acinetobacter baumannii, UniProt A0ABX6CK30); test: Bocillin-FL fluorescence polarization competition binding, A. baumannii PBP1a; conditions: fluorescence polarization competition binding assay using Bocillin-FL; read-out: A. baumannii PBP1a Potency
T1 sequence (A0ABX6CK30 1-851): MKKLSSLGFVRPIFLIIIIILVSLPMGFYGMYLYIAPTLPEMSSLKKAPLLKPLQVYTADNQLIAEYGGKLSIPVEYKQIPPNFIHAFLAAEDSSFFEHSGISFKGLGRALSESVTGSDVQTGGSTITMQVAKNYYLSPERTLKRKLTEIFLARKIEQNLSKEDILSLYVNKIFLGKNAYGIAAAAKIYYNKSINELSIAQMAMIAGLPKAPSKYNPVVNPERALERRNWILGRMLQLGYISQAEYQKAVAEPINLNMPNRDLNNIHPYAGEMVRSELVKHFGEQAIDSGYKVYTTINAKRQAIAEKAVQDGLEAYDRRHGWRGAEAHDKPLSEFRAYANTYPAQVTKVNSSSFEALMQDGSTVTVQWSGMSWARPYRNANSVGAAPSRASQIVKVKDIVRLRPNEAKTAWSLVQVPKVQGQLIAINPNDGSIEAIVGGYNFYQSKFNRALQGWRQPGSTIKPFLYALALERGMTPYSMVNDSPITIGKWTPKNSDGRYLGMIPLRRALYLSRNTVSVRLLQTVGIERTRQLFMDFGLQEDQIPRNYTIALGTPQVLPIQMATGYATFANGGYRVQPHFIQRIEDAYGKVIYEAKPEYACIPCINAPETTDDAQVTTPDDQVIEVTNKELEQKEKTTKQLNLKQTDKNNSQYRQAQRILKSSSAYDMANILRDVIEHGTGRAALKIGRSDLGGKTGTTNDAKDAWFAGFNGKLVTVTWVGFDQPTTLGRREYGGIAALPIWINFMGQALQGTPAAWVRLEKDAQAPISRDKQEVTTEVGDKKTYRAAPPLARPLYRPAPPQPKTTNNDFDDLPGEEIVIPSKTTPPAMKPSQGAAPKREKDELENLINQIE
In short: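 Purified PBP was preincubated with inhibitor (E. coli PBP3 1.5 μM, 30 min; P. aeruginosa PBP3 0.75 μM, A. baumannii PBP3 0.2 μM and PBP1a 1 μM, 15 min), then Bocillin-FL (0.1 μM; 0.05 μM for PBP1a) added and FP read up to 60 min. EC50 = 50% loss of bound probe.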

[5] = system: A. baumannii CDC-0083; test: microbe, parasite or virus in culture; assay type: cell-based; conditions: Acinetobacter baumannii, CDC0083, read-out: MIC, A. baumannii CDC-0083
[6] = system: P. aeruginosa (ΔmexAB-oprM); test: Broth microdilution MIC in iron-depleted CAMHB (IDM); assay type: cell-based; conditions: Pseudomonas aeruginosa; iron-depleted CAMHB (IDM); […]; read-out: Minimum inhibitory concentration, P. aeruginosa ΔmexAB-oprM
[7] = system: N. gonorrhoeae ATCC 49226; test: Liquid broth MIC in Fastidious broth; conditions: Neisseria gonorrhoeae
[8] = system: P. aeruginosa ATCC 35151; test: microbe, parasite or virus in culture; assay type: cell-based; conditions: Pseudomonas aeruginosa, ATCC35151, read-out: Minimum inhibitory concentration, P. aeruginosa ATCC 35151
[9] = read-out: Minimum Inhibitory Concentration (MIC), N. gonorrhoeae WHO X
[10] = read-out: Minimum Inhibitory Concentration (MIC), N. gonorrhoeae WHO Q
[11] = ATCC49226, read-out: Minimum Inhibitory Concentration (MIC), N. gonorrhoeae ATCC 49226
[12] = read-out: Minimum Inhibitory Concentration, WHO X
[13] = read-out: Minimum Inhibitory Concentration, WHO Q
[14] = ATCC49226, read-out: Minimum Inhibitory Concentration, ATCC 49226

Row | Compound | MIC [1, 9] | MIC [2] | MIC [3, 10] | IC50 [4] | MIC [5] | MIC [6] | MIC [7, 11] | MIC [8] | MIC [1, 12] | MIC [3, 13] | MIC [7, 14]
1 | O=C(NCCCN1CCN(C(=O)NC(C(=O)N[C@H]2Cc3ccc(F)c(C(=O)O)c3OB2O)c2cc(F)c(O)c(O)c2Cl)C(=O)C1=O)c1ccc(O)cc1 (stereo partly drawn) [Example 203, (3R)-3-(2-(2-chloro-5-fluoro-3,4-dihydroxyphenyl)-2-(4-(3-(4-hydroxybenzamido)propyl)-2,3-dioxopiperazine-1-carboxamido)acetamido)-7-fluoro-2-hydroxy-3,4-dihydro-2H-benzo[e][1,2]oxaborinine-8-carboxylic acid] | > 64 µg/mL | < 1 µg/mL | 16 to 32 µg/mL (≈ 21.1 to 42.1 µM) | > 250 µM | < 1 µg/mL | < 1 µg/mL | 4 to 8 µg/mL (≈ 5.26 to 10.5 µM) | < 1 µg/mL |  |  | 
2 | O=C(NCCS(=O)(=O)N1CCN(C(=O)NC(C(=O)N[C@H]2Cc3ccc(F)c(C(=O)O)c3OB2O)c2cc(F)c(O)c(O)c2Cl)C1=O)c1cccc(O)c1 (stereo partly drawn) [Example 261, (3R)-3-(2-(2-chloro-5-fluoro-3,4-dihydroxyphenyl)-2-(3-((2-(3-hydroxybenzamido)ethyl)sulfonyl)-2-oxoimidazolidine-1-carboxamido)acetamido)-7-fluoro-2-hydroxy-3,4-dihydro-2H-benzo[e][1,2]oxaborinine-8-carboxylic acid] |  | 2 to 4 µg/mL (≈ 2.56 to 5.12 µM) |  | > 250 µM | < 1 µg/mL | < 1 µg/mL |  | < 1 µg/mL | > 64 µg/mL | 16 to 32 µg/mL (≈ 20.5 to 40.9 µM) | 16 to 32 µg/mL (≈ 20.5 to 40.9 µM)
3 | O=C(CN1CCN(C(=O)NC(C(=O)N[C@H]2Cc3ccc(F)c(C(=O)O)c3OB2O)c2cc(F)c(O)c(O)c2Cl)C(=O)C1=O)NCc1ccccc1 (stereo partly shown) [Example 238] | > 64 µg/mL | 8 to 16 µg/mL (≈ 11 to 21.9 µM) | > 64 µg/mL | > 250 µM | > 128 µg/mL | < 1 µg/mL | 16 to 32 µg/mL (≈ 21.9 to 43.8 µM) | < 1 µg/mL |  |  | 
4 | O=C(NCCCN1CCN(C(=O)N[C@H](C(=O)N[C@H]2Cc3ccc(F)c(C(=O)O)c3OB2O)c2cc(F)c(O)c(O)c2Cl)C1=O)c1cccc(O)c1 [Example 254, (R)-3-((S)-2-(2-chloro-5-fluoro-3,4-dihydroxyphenyl)-2-(3-(3-(3-hydroxybenzamido)propyl)-2-oxoimidazolidine-1-carboxamido)acetamido)-7-fluoro-2-hydroxy-3,4-dihydro-2H-benzo[e][1,2]oxaborinine-8-carboxylic acid] |  | > 128 µg/mL |  | > 250 µM | > 128 µg/mL | > 128 µg/mL |  | < 1 µg/mL | > 64 µg/mL | > 64 µg/mL | > 64 µg/mL
5 | O=C(NCCCS(=O)(=O)N1CCN(C(=O)N[C@@H](C(=O)N[C@H]2Cc3ccc(F)c(C(=O)O)c3OB2O)c2cc(F)c(O)c(O)c2Cl)C1=O)c1cccc(O)c1 [Example 271, (R)-3-((R)-2-(2-chloro-5-fluoro-3,4-dihydroxyphenyl)-2-(3-((3-(3-hydroxybenzamido)propyl)sulfonyl)-2-oxoimidazolidine-1-carboxamido)acetamido)-7-fluoro-2-hydroxy-3,4-dihydro-2H-benzo[e][1,2]oxaborinine-8-carboxylic acid] |  | 8 to 16 µg/mL (≈ 10.1 to 20.1 µM) |  | > 250 µM | < 1 µg/mL | < 1 µg/mL |  | < 1 µg/mL | > 64 µg/mL | 16 to 32 µg/mL (≈ 20.1 to 40.2 µM) | 16 to 32 µg/mL (≈ 20.1 to 40.2 µM)
6 | CN(CCN1CCN(C(=O)N[C@@H](C(=O)N[C@H]2Cc3ccc(F)c(C(=O)O)c3OB2O)c2cc(F)c(O)c(O)c2Cl)C(=O)C1=O)Cc1cccnc1 [Example 201, (R)-3-((R)-2-(2-chloro-5-fluoro-3,4-dihydroxyphenyl)-2-(4-(2-(methyl(pyridin-3-ylmethyl)amino)ethyl)-2,3-dioxopiperazine-1-carboxamido)acetamido)-7-fluoro-2-hydroxy-3,4-dihydro-2H-benzo[e][1,2]oxaborinine-8-carboxylic acid] | > 64 µg/mL | < 1 µg/mL | 16 to 32 µg/mL (≈ 21.9 to 43.8 µM) | > 250 µM | < 1 µg/mL | < 1 µg/mL | 16 to 32 µg/mL (≈ 21.9 to 43.8 µM) | < 1 µg/mL |  |  | 
7 | O=C(NCCCS(=O)(=O)N1CCN(C(=O)N[C@H](C(=O)N[C@H]2Cc3ccc(F)c(C(=O)O)c3OB2O)c2cc(F)c(O)c(O)c2Cl)C1=O)c1cccc(O)c1 [Example 270, (R)-3-((S)-2-(2-chloro-5-fluoro-3,4-dihydroxyphenyl)-2-(3-((3-(3-hydroxybenzamido)propyl)sulfonyl)-2-oxoimidazolidine-1-carboxamido)acetamido)-7-fluoro-2-hydroxy-3,4-dihydro-2H-benzo[e][1,2]oxaborinine-8-carboxylic acid] |  | > 128 µg/mL |  | > 250 µM | 2 to 4 µg/mL (≈ 2.51 to 5.03 µM) | < 1 µg/mL |  | < 1 µg/mL | > 64 µg/mL | > 64 µg/mL | > 64 µg/mL
8 | O=C(CN1CCN(C(=O)N[C@@H](C(=O)N[C@H]2Cc3ccc(F)c(C(=O)O)c3OB2O)c2cc(F)c(O)c(O)c2Cl)C(=O)C1=O)NCc1ccncc1 [Example 239, (R)-3-((R)-2-(2-chloro-5-fluoro-3,4-dihydroxyphenyl)-2-(2,3-dioxo-4-(2-oxo-2-((pyridin-4-ylmethyl)amino)ethyl)piperazine-1-carboxamido)acetamido)-7-fluoro-2-hydroxy-3,4-dihydro-2H-benzo[e][1,2]oxaborinine-8-carboxylic acid] | > 64 µg/mL | 8 to 16 µg/mL (≈ 10.9 to 21.9 µM) | > 64 µg/mL | > 250 µM | < 1 µg/mL | < 1 µg/mL | 16 to 32 µg/mL (≈ 21.9 to 43.8 µM) | < 1 µg/mL |  |  | 
9 | O=C(CN1CCN(C(=O)NC(C(=O)N[C@H]2Cc3ccc(F)c(C(=O)O)c3OB2O)c2cc(F)c(O)c(O)c2Cl)C(=O)C1=O)Nc1ccc(O)cc1 (stereo partly drawn) [Example 230, (3R)-3-(2-(2-chloro-5-fluoro-3,4-dihydroxyphenyl)-2-(4-(2-((4-hydroxyphenyl)amino)-2-oxoethyl)-2,3-dioxopiperazine-1-carboxamido)acetamido)-7-fluoro-2-hydroxy-3,4-dihydro-2H-benzo[e][1,2]oxaborinine-8-carboxylic acid] | > 64 µg/mL | 2 to 4 µg/mL (≈ 2.73 to 5.47 µM) | 16 to 32 µg/mL (≈ 21.9 to 43.7 µM) | > 250 µM | < 1 µg/mL | < 1 µg/mL | 4 to 8 µg/mL (≈ 5.47 to 10.9 µM) | < 1 µg/mL |  |  | 
10 | O=C(NCCN1CCN(C(=O)NC(C(=O)N[C@H]2Cc3ccc(F)c(C(=O)O)c3OB2O)c2cc(F)c(O)c(O)c2Cl)C(=O)C1=O)c1cccnc1 (stereo partly drawn) [Example 217, (3R)-3-(2-(2-chloro-5-fluoro-3,4-dihydroxyphenyl)-2-(4-(2-(nicotinamido)ethyl)-2,3-dioxopiperazine-1-carboxamido)acetamido)-7-fluoro-2-hydroxy-3,4-dihydro-2H-benzo[e][1,2]oxaborinine-8-carboxylic acid] | > 64 µg/mL | 2 to 4 µg/mL (≈ 2.74 to 5.47 µM) | > 64 µg/mL | > 250 µM | > 128 µg/mL | < 1 µg/mL | 16 to 32 µg/mL (≈ 21.9 to 43.8 µM) | < 1 µg/mL |  |  | 
11 | O=C(NCCCN1CCN(C(=O)NC(C(=O)N[C@H]2Cc3ccc(F)c(C(=O)O)c3OB2O)c2cc(F)c(O)c(O)c2Cl)C(=O)C1=O)Nc1ccc(O)cc1 (stereo partly drawn) [Example 227, (3R)-3-(2-(2-chloro-5-fluoro-3,4-dihydroxyphenyl)-2-(4-(3-(3-(4-hydroxyphenyl)ureido)propyl)-2,3-dioxopiperazine-1-carboxamido)acetamido)-7-fluoro-2-hydroxy-3,4-dihydro-2H-benzo[e][1,2]oxaborinine-8-carboxylic acid] | > 64 µg/mL | < 1 µg/mL | > 64 µg/mL | > 250 µM | < 1 µg/mL | < 1 µg/mL | 16 to 32 µg/mL (≈ 20.6 to 41.3 µM) | < 1 µg/mL |  |  | 
